PubChem BioAssay AID296 (DTP/NCI, 2004)
Values joined by “and” are separate entries in the source; they are usually repeats but may differ in a detail not shown here. Equal values may be shown once. Records with an inconclusive call do not appear.

Test system: MX-1 breast xenograft, nude mice, tumor weight T/C
Assay: NCI In Vivo Anticancer Drug Screen. Data for tumor model Human Mammary Carcinoma MX-1 Xenograft (intrarenal inoculation) in NU/NU Swiss (nude) mice
Details: endpoint: mean tumor weight change, higher = larger tumour
Experimental: The antitumor activity of compounds was measured in mice bearing transplantable tumors. Survival or tumor size were measured and the results are expressed as the measurement made in the treated group (T) divided by the measurement made in the vehicle treated control group (C). The tumor model used in this assay is Human Mammary Carcinoma MX-1 Xenograft (intrarenal inoculation) in NU/NU Swiss (nude) mice

[1] = dose: 200.0 mg/kg/injection, schedule: Q04DX003 (sc), vehicle: saline with Tween-80
[2] = dose: 300.0 mg/kg/injection, schedule: Q04DX003 (sc), vehicle: saline
[3] = dose: 600.0 mg/kg/injection, schedule: Q04DX003 (sc), vehicle: saline
[4] = dose: 1200.0 mg/kg/injection, schedule: Q04DX003 (sc), vehicle: saline
[5] = dose: 2400.0 mg/kg/injection, schedule: Q04DX003 (sc), vehicle: saline
[6] = dose: 300.0 mg/kg/injection, schedule: Q04DX003 (sc), vehicle: saline with Tween-80
[7] = dose: 600.0 mg/kg/injection, schedule: Q04DX003 (sc), vehicle: saline with Tween-80
[8] = dose: 1200.0 mg/kg/injection, schedule: Q04DX003 (sc), vehicle: saline with Tween-80
[9] = dose: 2400.0 mg/kg/injection, schedule: Q04DX003 (sc), vehicle: saline with Tween-80
[10] = dose: 150.0 mg/kg/injection, schedule: Q04DX003 (sc), vehicle: saline with Tween-80
[11] = dose: 150.0 mg/kg/injection, schedule: Q04DX003 (sc), vehicle: Klucel (hydroxypropylcellulose) (HPC)
[12] = dose: 600.0 mg/kg/injection, schedule: Q04DX003 (sc), vehicle: Klucel (hydroxypropylcellulose) (HPC)
[13] = dose: 100.0 mg/kg/injection, schedule: Q04DX003 (sc), vehicle: saline with Tween-80

Cc1nc(C(Cl)(Cl)Cl)[nH]c(=O)c1SCCO
T/C (dose: 150.0 mg/kg/injection, schedule: Q04DX003 (ip), vehicle: distilled water + alcohol): 162 % of control
T/C (dose: 300.0 mg/kg/injection, schedule: Q04DX003 (ip), vehicle: distilled water + alcohol): 195 % of control
T/C (dose: 600.0 mg/kg/injection, schedule: Q04DX003 (ip), vehicle: distilled water + alcohol): 50 % of control

C[Si](C)(C)O/C=C1\CCCCC1=O
T/C [1]: 94 % of control
T/C (dose: 400.0 mg/kg/injection, schedule: Q04DX003 (sc), vehicle: saline with Tween-80): 89 % of control

OCC12COCN1COC2
T/C [2]: 80 % of control
T/C [3]: 102 % of control
T/C [4]: 109 % of control
T/C [5]: 122 % of control

COc1cccc2c1C(=O)c1c(O)c3c(c(O)c1C2=O)C[C@H](O)C[C@@H]3OC1CC(N)C(O)C(C)O1 (stereo partly drawn)
T/C (dose: 3.12 mg/kg/injection, schedule: Q01DX010 (sc), vehicle: saline): 165 % of control
T/C (dose: 6.25 mg/kg/injection, schedule: Q01DX010 (sc), vehicle: saline): 83 % of control
T/C (dose: 12.5 mg/kg/injection, schedule: Q01DX010 (sc), vehicle: saline): 66 % of control
T/C (dose: 25.0 mg/kg/injection, schedule: Q01DX010 (sc), vehicle: saline): 81 % of control

N#CCCSC(=S)C1CCCC1=N (stereo not drawn)
T/C [6]: 76 % of control
T/C [7]: 87 % of control
T/C [8]: 76 % of control
T/C [9]: 85 % of control

C=C(C)[C@H]1CN[C@H](C(=O)O)[C@H]1CC(=O)O
T/C (dose: 20.0 mg/kg/injection, schedule: Q04DX003 (sc), vehicle: suspension in saline): 75 % of control
T/C (dose: 40.0 mg/kg/injection, schedule: Q04DX003 (sc), vehicle: suspension in saline): 36 % of control

c1ccc2c(NCCCCCCNc3c4ccccc4nc4ccccc34)c3ccccc3nc2c1
T/C (dose: 10.0 mg/kg/injection, schedule: Q01DX010 (sc), vehicle: Klucel (hydroxypropylcellulose) (HPC)): 87 % of control
T/C (dose: 10.0 mg/kg/injection, schedule: Q04DX003 (sc), vehicle: Klucel (hydroxypropylcellulose) (HPC)): 297 % of control
T/C (dose: 20.0 mg/kg/injection, schedule: Q01DX010 (sc), vehicle: Klucel (hydroxypropylcellulose) (HPC)): 58 % of control
T/C (dose: 20.0 mg/kg/injection, schedule: Q04DX003 (sc), vehicle: Klucel (hydroxypropylcellulose) (HPC)): 241 % of control
T/C (dose: 40.0 mg/kg/injection, schedule: Q04DX003 (sc), vehicle: Klucel (hydroxypropylcellulose) (HPC)): 322 % of control
T/C (dose: 80.0 mg/kg/injection, schedule: Q04DX003 (sc), vehicle: Klucel (hydroxypropylcellulose) (HPC)): 199 % of control

O=NN(CCCl)C(=O)NCCO
T/C (dose: 3.12 mg/kg/injection, schedule: Q04DX003 (sc), vehicle: water): 72 % of control and 208 % of control
T/C (dose: 12.5 mg/kg/injection, schedule: Q04DX003 (sc), vehicle: water): 10 % of control

CC1(C)OC2C(COC(=O)c3ccc([N+](=O)[O-])cc3)OC(NC(=O)N(CCCl)N=O)C2O1 (stereo not drawn)
T/C [10]: 69 % of control
T/C [8]: 9 % of control

C[n+]1c(-c2cccc3ccccc23)c2cc(N)ccc2c2ccccc21
T/C (dose: 12.0 mg/kg/injection, schedule: Q04DX003 (sc), vehicle: saline): 103 % of control
T/C (dose: 48.0 mg/kg/injection, schedule: Q04DX003 (sc), vehicle: saline): 92 % of control

Cn1/c2cc/c1=C(\c1ccc(S(=O)(=O)O)cc1)c1ccc([n-]1)/C(c1ccc(S(=O)(=O)O)cc1)=c1/cc/c([nH]1)=C(\c1ccc(S(=O)(=O)O)cc1)c1ccc([n-]1)/C=2c1ccc(S(=O)(=O)O)cc1.O.O=S(=O)(O)C(F)(F)F.[Cu+2]
T/C [11]: 54 % of control
T/C [12]: 94 % of control

O=S1(=O)C=C(c2ccccc2)C(c2ccccc2)=C1
T/C [6]: 80 % of control
T/C [7]: 71 % of control
T/C [8]: 83 % of control
T/C [9]: 74 % of control

O=C(Nc1ccccc1C(=O)O)c1cc([N+](=O)[O-])cc([N+](=O)[O-])c1
T/C [13]: 101 % of control
T/C [1]: 120 % of control

Oc1cc2c3c(c1)c1cc4c(cc1c[n+]3CC2)OCO4
T/C (dose: 200.0 mg/kg/injection, schedule: Q04DX003 (sc), vehicle: water): 72 % of control
T/C (dose: 400.0 mg/kg/injection, schedule: Q04DX003 (sc), vehicle: water): 100 % of control
T/C (dose: 1600.0 mg/kg/injection, schedule: Q04DX003 (sc), vehicle: water): 72 % of control

CCN1C=C/C(=C\C=C/c2cc[n+](CC)c3ccccc23)c2ccccc21
T/C (dose: 0.25 mg/kg/injection, schedule: Q01DX010 (sc), vehicle: saline): 111 % of control
T/C (dose: 0.5 mg/kg/injection, schedule: Q01DX010 (sc), vehicle: saline): 173 % of control
T/C (dose: 1.0 mg/kg/injection, schedule: Q01DX010 (sc), vehicle: saline): 82 % of control

COc1cc(Cc2nccc3cc(OC)c(OC)cc23)c(C(C)=O)c(OC)c1
T/C (dose: 40.0 mg/kg/injection, schedule: Q01DX010 (sc), vehicle: saline): 103 % of control
T/C (dose: 80.0 mg/kg/injection, schedule: Q01DX010 (sc), vehicle: saline): 103 % of control
T/C (dose: 160.0 mg/kg/injection, schedule: Q01DX010 (sc), vehicle: saline): 93 % of control

CC1(C)OCC2OC=CC(=O)C2O1 (stereo not drawn)
T/C [10]: 79 % of control
T/C [6]: 73 % of control
T/C [7]: 112 % of control

O=C(Nc1nncs1)c1ccncc1
T/C [10]: 101 % of control
T/C [7]: 109 % of control
T/C [8]: 65 % of control

C[n+]1cccc(NC(=O)c2ccc(NC(=O)C34CCC(C(=O)Nc5ccc(C(=O)Nc6ccc[n+](C)c6)cc5)(CC3)CC4)cc2)c1
T/C (dose: 12.5 mg/kg/injection, schedule: Q04DX003 (sc), vehicle: saline with Tween-80): 118 % of control
T/C (dose: 25.0 mg/kg/injection, schedule: Q04DX003 (sc), vehicle: saline with Tween-80): 64 % of control
T/C (dose: 50.0 mg/kg/injection, schedule: Q04DX003 (sc), vehicle: saline with Tween-80): 35 % of control
T/C [13]: 27 % of control

Cc1c2cc(Cl)c3ccccc3c2c[n+]2ccccc12
T/C [6]: 82 % of control
T/C [7]: 67 % of control
T/C [8]: 44 % of control
T/C [9]: 76 % of control

CCCCCC[C@@H](O)C/C=C\CCCCCCCC(=O)OCCO
T/C [2]: 87 % of control
T/C [3]: 104 % of control
T/C [4]: 96 % of control
T/C [5]: 103 % of control

COc1ccc2[nH]c3c(c2c1)CCNC3CC(C)CCC=C(C)C (stereo not drawn)
T/C (dose: 75.0 mg/kg/injection, schedule: Q04DX003 (sc), vehicle: Klucel (hydroxypropylcellulose) (HPC)): 114 % of control
T/C [11]: 119 % of control

CC(=O)N(C)C
T/C (dose: 168.75 mg/kg/injection, schedule: Q04DX003 (sc), vehicle: saline): 81 % of control
T/C (dose: 337.5 mg/kg/injection, schedule: Q04DX003 (sc), vehicle: saline): 100 % of control
T/C (dose: 675.0 mg/kg/injection, schedule: Q04DX003 (sc), vehicle: saline): 85 % of control
T/C (dose: 1350.0 mg/kg/injection, schedule: Q04DX003 (sc), vehicle: saline): 61 % of control

Nc1nc(N)c2c(ccc3c2ccn3Cc2cccc([N+](=O)[O-])c2)n1
T/C (dose: 37.5 mg/kg/injection, schedule: Q04DX003 (sc), vehicle: saline with Tween-80): 98 % of control
T/C (dose: 75.0 mg/kg/injection, schedule: Q04DX003 (sc), vehicle: saline with Tween-80): 94 % of control

O=NN(CCCl)C(=O)NC1OC(CO)C(O)C(O)C1O (stereo not drawn)
T/C (dose: 5.0 mg/kg/injection, schedule: Q04DX003 (sc), vehicle: saline): 91 % of control
T/C (dose: 10.0 mg/kg/injection, schedule: Q04DX003 (sc), vehicle: saline): 69 % of control
T/C (dose: 20.0 mg/kg/injection, schedule: Q04DX003 (sc), vehicle: saline): 40 % of control

COC1=NCN=C2SC=C(N)N=C12
T/C (dose: 37.5 mg/kg/injection, schedule: Q04DX003 (sc), vehicle: suspension in saline): 50 % of control
T/C (dose: 75.0 mg/kg/injection, schedule: Q04DX003 (sc), vehicle: suspension in saline): 30 % of control
T/C (dose: 150.0 mg/kg/injection, schedule: Q04DX003 (sc), vehicle: suspension in saline): 43 % of control

CC1(C)CC2(C)OC2C2(C1)N=NC(=Nc1ccccc1)O2 (stereo not drawn)
T/C [6]: 79 % of control
T/C [7]: 81 % of control
T/C [8]: 88 % of control
T/C [9]: 81 % of control

C#C[C@]1(O)CC[C@H]2[C@@H]3CCc4cc(O)ccc4[C@H]3CC[C@@]21C
T/C [11]: 150 % of control
T/C (dose: 300.0 mg/kg/injection, schedule: Q04DX003 (sc), vehicle: Klucel (hydroxypropylcellulose) (HPC)): 94 % of control
T/C [12]: 80 % of control
T/C (dose: 1200.0 mg/kg/injection, schedule: Q04DX003 (sc), vehicle: Klucel (hydroxypropylcellulose) (HPC)): 122 % of control
